Earlier results in patent US20140243296A1, “Organic Compounds” (Jagotec AG, priority 2011, published 2014).

How the values were obtained:
CYP 3A4 isoform = CYP 3A4 isoform (Homo sapiens, UniProt P08684); conditions: qualitative, prior-art knowledge
P-glycoprotein (Pgp) = P-glycoprotein (Pgp) (Homo sapiens, UniProt P08183); conditions: qualitative, prior-art knowledge
[1] = qualitative

Chain of CYP 3A4 isoform (P08684 whole entry, canonical isoform): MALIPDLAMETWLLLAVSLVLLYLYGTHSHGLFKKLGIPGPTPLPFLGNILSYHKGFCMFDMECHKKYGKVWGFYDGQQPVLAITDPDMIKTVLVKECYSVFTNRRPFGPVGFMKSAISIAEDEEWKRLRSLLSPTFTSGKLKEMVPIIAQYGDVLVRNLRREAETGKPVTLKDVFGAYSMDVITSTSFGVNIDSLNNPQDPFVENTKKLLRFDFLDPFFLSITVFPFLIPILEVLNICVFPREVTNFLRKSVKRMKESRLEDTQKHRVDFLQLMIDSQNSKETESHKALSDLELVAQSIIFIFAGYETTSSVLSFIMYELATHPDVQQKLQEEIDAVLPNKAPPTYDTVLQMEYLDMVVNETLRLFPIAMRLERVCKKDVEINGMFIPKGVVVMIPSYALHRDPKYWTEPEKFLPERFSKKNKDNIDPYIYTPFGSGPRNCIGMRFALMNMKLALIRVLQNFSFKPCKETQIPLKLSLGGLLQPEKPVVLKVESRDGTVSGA
Chain of P-glycoprotein (Pgp) (P08183 whole entry): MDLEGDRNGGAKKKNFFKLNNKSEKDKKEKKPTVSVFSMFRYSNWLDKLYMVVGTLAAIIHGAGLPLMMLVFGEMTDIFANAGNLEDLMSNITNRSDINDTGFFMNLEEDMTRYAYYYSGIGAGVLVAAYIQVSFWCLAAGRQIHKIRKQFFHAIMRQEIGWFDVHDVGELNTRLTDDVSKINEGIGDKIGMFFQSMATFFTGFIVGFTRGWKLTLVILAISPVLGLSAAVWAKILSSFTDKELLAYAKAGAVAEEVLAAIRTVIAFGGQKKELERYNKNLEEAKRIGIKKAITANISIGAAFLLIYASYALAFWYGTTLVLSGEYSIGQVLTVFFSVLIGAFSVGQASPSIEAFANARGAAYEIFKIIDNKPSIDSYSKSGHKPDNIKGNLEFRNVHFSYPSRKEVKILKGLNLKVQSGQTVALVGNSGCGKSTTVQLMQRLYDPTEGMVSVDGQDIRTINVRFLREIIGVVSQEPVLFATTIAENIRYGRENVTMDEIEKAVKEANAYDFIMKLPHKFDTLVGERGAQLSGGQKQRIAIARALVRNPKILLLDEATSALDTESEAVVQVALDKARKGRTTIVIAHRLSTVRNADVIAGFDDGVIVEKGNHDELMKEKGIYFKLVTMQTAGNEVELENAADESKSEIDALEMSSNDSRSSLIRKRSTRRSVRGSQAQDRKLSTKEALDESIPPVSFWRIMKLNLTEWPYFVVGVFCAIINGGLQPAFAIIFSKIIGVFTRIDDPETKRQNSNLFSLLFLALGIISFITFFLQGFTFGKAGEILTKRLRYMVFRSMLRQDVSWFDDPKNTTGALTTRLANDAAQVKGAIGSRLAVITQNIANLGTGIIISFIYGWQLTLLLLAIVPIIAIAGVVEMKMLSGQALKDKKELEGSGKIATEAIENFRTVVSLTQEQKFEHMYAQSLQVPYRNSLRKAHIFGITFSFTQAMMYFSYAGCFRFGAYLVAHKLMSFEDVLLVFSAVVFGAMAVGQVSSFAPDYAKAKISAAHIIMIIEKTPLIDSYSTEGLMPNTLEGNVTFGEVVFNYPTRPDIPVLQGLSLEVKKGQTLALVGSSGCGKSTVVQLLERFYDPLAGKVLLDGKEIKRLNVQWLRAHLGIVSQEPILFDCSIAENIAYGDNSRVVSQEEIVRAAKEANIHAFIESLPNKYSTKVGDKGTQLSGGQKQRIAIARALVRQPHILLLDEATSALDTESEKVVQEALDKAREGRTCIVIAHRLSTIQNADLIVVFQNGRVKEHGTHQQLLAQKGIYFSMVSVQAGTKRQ

| SMILES | inhibition of / affinity towards CYP, particularly CYP 3A4 isoform (CYP 3A4 isoform) | further results |
| --- | --- | --- |
| CC(C)(C)NC(=O)[C@@H]1C[C@@H]2CCCC[C@@H]2CN1C[C@@H](O)[C@H](Cc1ccccc1)NC(=O)[C@H](CC(N)=O)NC(=O)c1ccc2ccccc2n1 [saquinavir] | weak inhibitors | – |
| CC(C)(C)NC(=O)[C@@H]1CN(Cc2cccnc2)CCN1C[C@@H](O)C[C@@H](Cc1ccccc1)C(=O)N[C@H]1c2ccccc2C[C@H]1O [indinavir] | – | inhibitory effect on / affinity for Pgp (P-glycoprotein (Pgp)): substantially no inhibitory effect |
| CC(C)CN(C[C@@H](O)[C@H](Cc1ccccc1)NC(=O)O[C@H]1CO[C@H]2OCC[C@H]21)S(=O)(=O)c1ccc(N)cc1 [Darunavir, darunavir] | – | solubility [1]: poorly soluble |

Continued, in another order:

| inhibition of / affinity towards CYP, particularly CYP 3A4 isoform (CYP 3A4 isoform) | SMILES | further results |
| --- | --- | --- |
| modest inhibition | Cc1c(O)cccc1C(=O)N[C@@H](CSc1ccccc1)[C@H](O)CN1C[C@H]2CCCC[C@H]2C[C@H]1C(=O)NC(C)(C)C [nelfinavir] | – |
| weak inhibitors | CC(C)CN(C[C@@H](O)[C@H](Cc1ccccc1)NC(=O)O[C@H]1CCOC1)S(=O)(=O)c1ccc(N)cc1 [amprenavir] | – |
